Results as given in ChEMBL document CHEMBL1150017, “A convenient synthesis of sulfated and sialyl oligosaccharides as potential ligands for CD22 adhesion protein” (Bioorg Med Chem Lett, 1995).
The source made the active and inactive calls. The calls are words filed in the database; no cut-off is given here.

Columns and labels:
[1] = molecular target: B-cell receptor CD22 (Homo sapiens) (UniProt P20273); assay: Binding affinity against CD22 adhesion protein in ELISA competition assay;no effect
[2] = molecular target: B-cell receptor CD22 (Homo sapiens) (UniProt P20273); assay: Binding affinity against CD22 adhesion protein; no effect
[3] = molecular target: B-cell receptor CD22 (Homo sapiens) (UniProt P20273); assay: Binding affinity against CD22 adhesion protein;no effect

Chain of B-cell receptor CD22 (Homo sapiens) (P20273 whole entry): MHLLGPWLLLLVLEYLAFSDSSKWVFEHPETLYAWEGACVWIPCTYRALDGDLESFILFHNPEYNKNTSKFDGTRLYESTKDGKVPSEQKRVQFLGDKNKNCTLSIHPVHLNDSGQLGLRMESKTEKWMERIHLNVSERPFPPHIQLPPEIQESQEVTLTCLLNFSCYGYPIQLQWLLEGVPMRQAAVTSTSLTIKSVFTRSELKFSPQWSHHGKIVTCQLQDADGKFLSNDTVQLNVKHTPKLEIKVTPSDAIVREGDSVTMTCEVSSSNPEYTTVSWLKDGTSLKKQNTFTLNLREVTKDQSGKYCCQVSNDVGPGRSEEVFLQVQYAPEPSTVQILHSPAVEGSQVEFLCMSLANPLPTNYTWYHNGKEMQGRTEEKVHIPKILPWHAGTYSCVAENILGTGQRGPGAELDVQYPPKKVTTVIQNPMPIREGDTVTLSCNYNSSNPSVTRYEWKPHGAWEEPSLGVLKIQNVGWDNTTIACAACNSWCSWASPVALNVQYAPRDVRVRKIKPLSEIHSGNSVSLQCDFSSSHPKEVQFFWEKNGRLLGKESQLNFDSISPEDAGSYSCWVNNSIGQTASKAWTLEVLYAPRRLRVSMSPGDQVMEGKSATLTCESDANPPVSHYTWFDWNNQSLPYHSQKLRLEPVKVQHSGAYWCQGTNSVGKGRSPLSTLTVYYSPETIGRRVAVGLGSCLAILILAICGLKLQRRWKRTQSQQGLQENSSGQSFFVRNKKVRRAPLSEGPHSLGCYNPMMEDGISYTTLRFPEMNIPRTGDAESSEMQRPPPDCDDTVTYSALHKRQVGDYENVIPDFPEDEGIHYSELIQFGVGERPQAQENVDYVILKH

Row | Activity [3] | Compound | other results
1 | – | CC(=O)N[C@@H]1[C@@H](O)C[C@](OC[C@H]2O[C@@H](Oc3ccc([N+](=O)[O-])cc3)[C@H](NC(C)=O)[C@@H](O[C@@H]3O[C@H](COS(=O)(=O)O)[C@H](O)[C@H](O)[C@H]3O)[C@@H]2O)(C(=O)O)O[C@H]1C(O)C(O)CO (stereo partly drawn) | Activity [1]: inactive
2 | – | O=C(CBr)OCC1OC(Br)C(OC(=O)c2ccccc2)C(OC(=O)c2ccccc2)C1OC(=O)c1ccccc1 (stereo not drawn) | Activity [2]: inactive
3 | – | CC(=O)N[C@@H]1[C@@H](O)C[C@](OC[C@H]2O[C@@H](Oc3ccc([N+](=O)[O-])cc3)[C@H](NC(C)=O)[C@@H](O[C@@H]3O[C@H](CO)[C@H](O)[C@H](O)[C@H]3O)[C@@H]2O)(C(=O)O)O[C@H]1C(O)C(O)CO (stereo partly drawn) | Activity [1]: inactive
4 | inactive | CC(=O)N[C@@H]1[C@@H](O)C[C@](OC[C@H]2O[C@H](Oc3ccccc3[N+](=O)[O-])[C@H](NC(C)=O)[C@@H](O[C@@H]3O[C@H](COS(=O)(=O)O)[C@H](O)[C@H](O)[C@H]3O)[C@H]2O)(C(=O)O)O[C@H]1C(O)C(O)CO (stereo partly drawn) | –
5 | inactive | CC(=O)N[C@@H]1[C@@H](Oc2ccccc2[N+](=O)[O-])O[C@@H](CO)[C@H](O)[C@@H]1O[C@@H]1O[C@@H](COS(=O)(=O)O)[C@H](O)[C@H](O)[C@@H]1O | –
6 | inactive | CC(=O)N[C@@H]1[C@@H](Oc2ccccc2[N+](=O)[O-])O[C@@H](COS(=O)(=O)O)[C@H](O)[C@@H]1O[C@@H]1O[C@@H](COS(=O)(=O)O)[C@H](O)[C@H](O)[C@@H]1O | –
7 | inactive | CC(=O)OCC1OC(Br)C(OC(C)=O)C(OC(=O)CCl)C1OC(C)=O (stereo not drawn) | –
8 | inactive | CC(=O)N[C@@H]1[C@@H](Oc2ccccc2[N+](=O)[O-])O[C@@H](CO)[C@H](O)[C@@H]1O[C@@H]1O[C@@H](CO)[C@H](O)[C@H](OS(=O)(=O)O)[C@@H]1O | –
